Where two headings read alike, the source gives them in different places.
Columns and labels:
MYCbHLHZip:MAXbHLHZip = molecular target: T1, MYCbHLHZip:MAXbHLHZip (Homo sapiens, UniProt P01106); assay: SPR MYC:MAX heterodimer formation assay; format: binding; details: 100 nM MYCbHLHZip over immobilized MAXbHLHZip
T1 construct: 6xHis (N); made in house; host or cells: E. coli BL21 (DE3), pET28a
Method: The SPR method is a highly sensitive assay to determine the affinity between protein and ligand and to measure the kinetics of the interaction. In the SPR MYC:MAX interaction assay, MAXbHLHZip was covalently attached onto a sensor chip and MYCbHLHZip pre-mixed with compound was injected over the surface and thereafter allowed to dissociate.
The SPR experiments were performed at 25 °C using a Biacore T200 (GE Healthcare) instrument kindly provided by SciLifeLab Solna. An amino coupling procedure was used to immobilize protein on a CM5 sensor chip (GE Healthcare). Sensorgrams were generated by subtraction of the reference (blank immobilized) surface. All details will be described in Castell et al. (manuscript in preparation). In general, for the MYC:MAX interaction assay, 200–500 RU of MAXbHLHZip was immobilized and 100 nM MYCbHLHZip pre-incubated with compound in PBS supplemented with 0.05% Tween-20 and 1% DMSO was injected with a flow rate of 30 µl/min and allowed to dissociate. MAX was regenerated by injection of PBS buffer supplemented with Urea.

MYC bHLHZip = molecular target: T2, MYC bHLHZip (Homo sapiens, UniProt P01106); assay: SPR direct binding to immobilized MYC
T2 construct: 6xHis (N); made in house; host or cells: E. coli BL21 (DE3), pET28a; purified in denaturing conditions
Method: Further, MYCMI-6 binding to MAX, MXD1 (MAD1) (Figs 4C and S5C and D), p53 (Fig. 4D), BSA (Suppl. Fig. S5E) and YFP (data not shown) were negligible. Binding to BCL-XL was only 10% of the theoretical maximum at 2 μM MYCMI-6 (Suppl. Fig. S5F).
The MYC SPR assay was carried out as described above with MYCbHLHZip immobilized to a level of 800–1000 RU. For kinetic binding experiments, a Langmuir 1:1 binding event was applied using the Biacore T200 Evaluation Software 2.0 (GE Healthcare) to determine association (ka) and dissociation (kd) constants of the compound and to calculate affinity (KD) by the formula; KD = kd/ka. Binding responses from equilibrium binding experiments were plotted against compound concentration and KD values were determined at 50% of the theoretical Rmax with the formula Rmax = (MW analyte/MW ligand) × immobilized ligand level on the chip (RU) × stoichiometry (1:1). Same coupling method described above was used to immobilize the control proteins. MAX was immobilized to approximately 2000 RU, MAD to 600 RU, BSA to 1000 RU, p53 to 3000 RU and BCL-XL, to 500 RU.

[1] = test system: MYCN-non-amplified neuroblastoma cells (SK-N-F1, SK-N-AS, SK-N-RA); assay: Resazurin growth assay, MYCN-non-amplified neuroblastoma cell lines; format: cell-based
Text: HEK293A, MCF7, MDA-MB231, SK-N-F1, SK-N-RA, SK-N-AS, COS-7, HeLa, BJ cells, and Rat1 fibroblasts TGR-1 (wt), HO15.19 (MYC knockout) and HOmyc3 (MYC reconstituted HO15.19) were maintained in DMEM. The neuroblastoma cell lines Kelly, IMR-32 and SK-N-DZ, and the Burkitt’s lymphoma cell lines Mutu, Daudi and ST486 were kept in RPMI. SK-N-BE(2) cells were maintained in a 1:1 mixture of EMEM and F12 media, supplemented with 1% non-essential amino acid solution (NEAA) and 0.5% Glutamine. U2OS-MYC-ER cell lines were cultured in phenol-red free DMEM and treated with 100 nM 4-hydroxytamoxifen (HOT) (Sigma-Aldrich) to activate MYC-ER. IMR-90 was maintained in MEM. […]
Cell proliferation assays. Cell growth and viability was estimated in triplicates with WST-1 (Roche) or Resazurin sodium salt (Sigma-Aldrich) assays in medium at 37°C and 5% CO 2 for 2 hours after which absorbance or fluorescence, respectively, was measured with an Omega Fluostar (BMG Labtech) in a 96 well plate format. […] Images were taken in the green (FITC) and blue (DAPI) channels using a fluorescence microscope (ImageXpress Micro, Molecular Devices). […] After 16 days, the colonies were stained with 100 µg/ml MTT (Sigma) overnight and colonies were counted.
Immunohistochemistry. […] For quantification, areas with positive TUNEL and Ki67 staining were measured using Image J software. […]

BCL-XL = test system: T3, BCL-XL; design: method as in PMID 23824742; details: in vitro fluorescence polarization, BCL-XL:BAK; cited from earlier work
T3 construct: purchased Abcam

T2 sequence (P01106 367-447 limits assumed): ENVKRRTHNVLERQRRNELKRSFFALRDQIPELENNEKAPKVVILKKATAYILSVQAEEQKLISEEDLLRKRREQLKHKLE
T1 sequence (P01106 367-447 limits assumed): as above

Structure (SMILES): CCOc1ccc2nc3cc(/N=N/c4ccc(N)nc4N)ccc3c(N)c2c1 [MYCMI-6]
- IC50 (MYCbHLHZip:MAXbHLHZip): 3.8 µM
- Kd (MYC bHLHZip; 1:1 Langmuir model, four kinetic experiments, read-out: KD for MYC bHLHZip, SPR kinetic experiments, average): 1.6 ± 0.5 µM
- Kd (MYC bHLHZip; 50% of Rmax, four equilibrium experiments, read-out: KD for MYC bHLHZip, SPR equilibrium binding plot): 1.5 to 2 µM
- Kd (MYC bHLHZip; Langmuir 1:1, constant Rmax 43 RU, read-out: KD for MYC bHLHZip, SPR, one representative kinetic experiment): 2.5 µM
- kon (MYC bHLHZip; SPR, representative experiment, read-out: association rate ka): 9290 M⁻¹ s⁻¹
- koff (MYC bHLHZip; SPR, representative experiment, read-out: dissociation rate kd): 0.0229 s⁻¹
- GI50 ([1]; Homo sapiens, SK-N-AS, 48 hours, resazurin): ≥ 20 µM
- response of SK-N-F1 cell line ([1]; SK-N-F1, 48 hours): essentially did not respond at all
- concentration of binding to BCL-XL (BCL-XL): 14 nM

Source: PMC6030159 (Scientific Reports, 2018)
